Reference: patent US6482802B1 (Endowment for Research in Human Biology, Inc., priority 1998, dated 2002)
“And” between values parts separate entries of the source, which are not always exact repeats. Equal values may be shown once. “Also recorded” adds a separate entry of the source.

Legend:
[1] = tested on: HUVE cells; experiment: EGF-induced proliferation of HUVE cells; format: cell-based, human; conditions: for EGF Cell No.: EGF 5 ng/ml, 48 hrs, 0 μM 5300 ± 300
Description: (§1) The cells were incubated at 37° C. under humidified air containing 5% CO2 for 48 hrs. […] Cell numbers were determined with a Coulter counter.

[2] = tested on: chorioallantoic membrane (CAM) of chick embryos; experiment: CAM assay, EGF-induced angiogenesis; format: in vivo; conditions: for % Positive: EGF alone 69, water 21
Description: (§2) Angiogenesis was measured on the CAM by the method of Knighton et al. (Knighton et al., 1977, Br. J. Cancer 35:347-356) essentially as described (Fett et al., 1985, Biochemistry 24:5480-5486). Fertilized chicken eggs were kept at 18° C. for 2 days and then incubated in a humidified environment at 37° C. for 3 days. Albumin was aspirated from the embryos and after 24 hours, a “window” was cut through the shell and covered with clear tape. […] After 48-68 hours at 37° C., the growth of blood vessels was observed microscopically and recorded as either positive or negative. A positive response (i.e., an angiogenic response) has a typical “spokewheel” appearance.

[3] = tested on: chorioallantoic membrane (CAM) of chick embryos; experiment: CAM assay, VEGF-induced angiogenesis; format: in vivo; conditions: for % Positive: VEGF alone 63, water 21
Description: as §2

[4] = tested on: nuclear translocation of bFGF in HUVE cells; experiment: Nuclear translocation of 125I-bFGF in HUVE cells; format: cell-based, human; conditions: for bFGF Counts (nuclear fraction): 125I-bFGF 50 ng/ml, 0 μM: 18300 ± 200
Description: Inhibition of nuclear translocation of angiogenic factors in HUVE cells was performed in the following manner. […] The cell pellet was washed once with PBS and lysed with 0.5% triton X-100 in PBS. […] Radioactivity in the nuclear fraction was determined with a gamma counter.

[5] = tested on: HUVE cells; experiment: Angiogenin-induced proliferation of HUVE cells; format: cell-based, human
Description: HUVE cells were seeded at 4×10^3 cells/cm^2 in attachment factor (Cell Systems Corp.)-coated 35 mm dishes in HE-SFM, and incubated with 1 μg/ml angiogenin in the presence or absence of inhibitors at 37° C. for 48 hr. Cell were detached by trypsinization and cell numbers were determined with a Coulter counter.

[6] = tested on: HUVE cells; experiment: bFGF-induced proliferation of HUVE cells (neomycin dose series); format: cell-based, human; conditions: for bFGF Cell No.: bFGF 10 ng/ml, 48 hrs, 0 μM: 59600 ± 2600
Description: as §1

[7] = tested on: nuclear translocation of 125I-angiogenin in HUVE cells; experiment: Nuclear translocation of 125I-angiogenin in HUVE cells

neomycin
EGF Inhib. % of cell proliferation ([1]; neomycin 25 μM): 17%
EGF Cell No. ([1]; neomycin 25 μM): 46700 ± 600
EGF Inhib. % of cell proliferation ([1]; neomycin 50 μM): 35%
EGF Cell No. ([1]; neomycin 50 μM): 41700 ± 600
EGF Inhib. % of cell proliferation ([1]; neomycin 100 μM): 59%
EGF Cell No. ([1]; neomycin 100 μM): 35700 ± 1100
EGF Inhib. % of cell proliferation ([1]; neomycin 150 μM): 71%
EGF Cell No. ([1]; neomycin 150 μM): 32800 ± 200
EGF Inhib. % of cell proliferation ([1]; neomycin 200 μM): 100%
EGF Cell No. ([1]; neomycin 200 μM): 26000 ± 900
IC50 ([1]; read-out: IC50, EGF-induced proliferation of endothelial cells): ~100 µM
% Inhibition of angiogenic activity ([2]; EGF 10 ng + neomycin 20 ng): 19%
Positive eggs ([2]; EGF 10 ng + neomycin 20 ng, 15 total eggs): 9
% Positive ([2]; EGF 10 ng + neomycin 20 ng): 60%
% Inhibition of angiogenic activity ([2]; EGF 10 ng + neomycin 200 ng): 81%
Positive eggs ([2]; EGF 10 ng + neomycin 200 ng, 30 total eggs): 9
% Positive ([2]; EGF 10 ng + neomycin 200 ng): 30%
dosage that inhibited EGF-induced angiogenesis ([2]; in vivo): about 200 ng per embryo
% Inhibition of angiogenic activity ([3]; VEGF 10 ng + neomycin 200 ng): 10%
Positive eggs ([3]; VEGF 10 ng + neomycin 200 ng, 24 total eggs): 14
% Positive ([3]; VEGF 10 ng + neomycin 200 ng): 58%
% Inhibition of angiogenic activity ([3]; VEGF 10 ng + neomycin 1000 ng): 24%
% Positive ([3]; VEGF 10 ng + neomycin 1000 ng (1 μg)): 52%
Positive eggs ([3]; VEGF 10 ng + neomycin 1000 ng, 27 total eggs): 14
inhibition of angiogenic activity of VEGF on the CAM ([3]; VEGF 10 ng, neomycin 200 ng and 1 μg): did not significantly inhibit; also recorded: not significantly inhibited
reduction of angiogenic activity of VEGF on the CAM ([3]; dosage as high as 900 ng per embryo): did not significantly reduce
bFGF % Inhib. of nuclear translocation ([4]; neomycin 10 μM): 13%
bFGF Counts (nuclear fraction) ([4]; neomycin 10 μM): 15900 ± 100 cpm
bFGF % Inhib. of nuclear translocation ([4]; neomycin 50 μM): 22%
bFGF Counts (nuclear fraction) ([4]; neomycin 50 μM): 14300 ± 100 cpm
bFGF % Inhib. of nuclear translocation ([4]; neomycin 100 μM): 26%
bFGF Counts (nuclear fraction) ([4]; neomycin 100 μM): 13500 ± 300 cpm
bFGF % Inhib. of nuclear translocation ([4]; neomycin 150 μM): 32%
bFGF Counts (nuclear fraction) ([4]; neomycin 150 μM): 12400 ± 200 cpm
bFGF % Inhib. of nuclear translocation ([4]; neomycin 200 μM): 40%
bFGF Counts (nuclear fraction) ([4]; neomycin 200 μM): 10900 ± 100 cpm
IC50 ([5]; HUVE cells, angiogenin 1 μg/ml, 48 hr, read-out: IC50, angiogenin-induced EC proliferation): ~10 µM and < 10 µM
Cell number ([5]; aminoglycoside 100 μM, with angiogenin 1 μg/ml, none: 62,500 ± 100): 53,400 ± 1,900
Cell number ([5]; aminoglycoside 100 μM, without angiogenin, none: 52,000 ± 100): 52,700 ± 700
percent of cell number in the presence of 1 μg/ml angiogenin relative to the corresponding control ([5]; aminoglycoside 100 μM, none: 120): 101%
inhibition of proliferative activity of angiogenin ([5]; neomycin 5 μM, angiogenin 1 μg/ml, 48 hr): 49%
inhibition of angiogenin-induced cell proliferation ([5]; neomycin 25 μM, angiogenin 1 μg/ml, 48 hr): 69%
angiogenin-induced cell proliferation ([5]; neomycin 50 μM, angiogenin 1 μg/ml, 48 hr): completely abolished
effect of neomycin alone on cell proliferation ([5]; no angiogenin, 48 hr): neither induced nor inhibited cell proliferation
bFGF Inhib. % of cell proliferation ([6]; neomycin 25 μM): 19%
bFGF Cell No. ([6]; neomycin 25 μM): 51500 ± 700
bFGF Inhib. % of cell proliferation ([6]; neomycin 50 μM): 34%
bFGF Cell No. ([6]; neomycin 50 μM): 45900 ± 1200
bFGF Inhib. % of cell proliferation ([6]; neomycin 100 μM): 41%
bFGF Cell No. ([6]; neomycin 100 μM): 42600 ± 200
bFGF Inhib. % of cell proliferation ([6]; neomycin 150 μM): 49%
bFGF Cell No. ([6]; neomycin 150 μM): 39900 ± 125
bFGF Inhib. % of cell proliferation ([6]; neomycin 200 μM): 64%
bFGF Cell No. ([6]; neomycin 200 μM): 34600 ± 400
IC50 ([6]; read-out: IC50, bFGF-induced proliferation of endothelial cells): ~100 µM
% inhibition of nuclear translocation of angiogenin ([7]; inhibitor 10 μM, 125I-angiogenin 1 μg/ml 30 min): 42%
Nuclear 125I-angiogenin ([7]; inhibitor 100 μM, 37° C. 30 min, 125I-angiogenin 1 μg/ml 30 min, control 3090 ± 260): 1230 ± 60 cpm
125I-angiogenin accumulated in the nucleus, % of control ([7]; neomycin 500 μM): 14%
Nuclear accumulated 125I-angiogenin ([7]; neomycin 500 μM, control 3090±260): 420±100 cpm
IC50 ([7]; read-out: IC50, angiogenin nuclear translocation, HUVE cells): ~50 µM
